# Measurements taken from patent publication US12569508B2, “Antimicrobial compositions and methods of use” (priority 2020, dated 2026).
# System: PAO1 biofilm
# Assay: In vitro MBEC antibiofilm assay
# Format: cell-based, P. aeruginosa
# Settings: 5-15 μg/mL colistin
# Method: The pegs on lid of the MBEC Assay® were submerged into the bacterial suspension, with column 12 containing sterile LB broth as a negative control. The plate was incubated at 37° C. on a rotating gyrator for 24 h to form biofilm on the pegs. After 24 h, the peg lid was removed and transferred into another 96-well microtiter plate containing sterile water for 30 seconds before being transferred into a treatment plate. The peg lid in the treatment plate was incubated for 24 h at 37° C. on the rotating gyrator. In the first study, the effect of concentration variation of TOB in MO-LCNPs was determined. […] The respective controls included unloaded formulations MO-LCNP and […] at equivalent concentrations and 0.9% NaCl. […] In the second study, the difference in effect of MO- and […] compared to liposomes containing TOB was determined. […] The final concentration of MO and PHY was 0.25 mg/mL. Liposomes were prepared as described above. In the third study, TOB, AMI and GEN as unformulated solutions and loaded in MO-LCNPs were compared as treatments against PAO1 biofilms in the MBEC Assay®. The concentration of each antibiotic was 6 μg/mL. […] In all four different studies, the treatments were incubated with the PAO1 biofilm grown on the MBEC Assay® on a rotating plate at 37° C. After 24 h incubation, the peg lid was transferred to a fresh plate containing sterilized water to inhibit treatments. […]
substance,measurement,value
Colistin sulfate salt,anti-biofilm effect compared to saline control,no anti-biofilm or antimicrobial effect
